Measurements reported in patent publication US9890166B2, “Imidazopyrrolidine derivatives and their use in the treatment of disease” (NOVARTIS AG, priority 2013, dated 2018).

Experiments:
BRD2 (His-Brd2(60-472)) = BRD2 (His-Brd2(60-472)) (Homo sapiens (Human), UniProt P25440); experiment: TR-FRET in-vitro binding assay for BRD2; conditions: single determination or n ≧ 2 independent determinations, read-out: Biochemical IC50 BRD2
Outline: (§1)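 In this TR-FRET format, each compound was tested as an 8-point dilution series, single point per concentration, dispensed from 90% DMSO solution. Incubation lasted 35 minutes at 30° C.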

BRD3 (His-Brd3(20-477)) = BRD3 (His-Brd3(20-477)) (Homo sapiens (Human), UniProt Q15059); experiment: TR-FRET in-vitro binding assay for BRD3; conditions: single determination or n ≧ 2 independent determinations, read-out: Biochemical IC50 BRD3
Sequence of BRD3 (His-Brd3(20-477)) (Q15059 20-477): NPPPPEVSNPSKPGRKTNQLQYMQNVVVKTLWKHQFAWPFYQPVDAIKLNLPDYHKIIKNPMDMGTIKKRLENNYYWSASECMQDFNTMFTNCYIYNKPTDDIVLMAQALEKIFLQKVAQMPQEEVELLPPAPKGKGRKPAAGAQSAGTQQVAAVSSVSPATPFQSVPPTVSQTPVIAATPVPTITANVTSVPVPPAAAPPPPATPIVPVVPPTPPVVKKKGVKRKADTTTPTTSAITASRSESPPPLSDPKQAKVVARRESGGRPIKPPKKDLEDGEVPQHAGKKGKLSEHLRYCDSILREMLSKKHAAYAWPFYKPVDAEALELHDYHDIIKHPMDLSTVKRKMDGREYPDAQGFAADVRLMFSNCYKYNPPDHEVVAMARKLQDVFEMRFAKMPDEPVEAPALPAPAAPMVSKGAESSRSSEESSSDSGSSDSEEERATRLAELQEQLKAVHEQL
Outline: as §1

MV-4-11 cells = experiment: Cell growth inhibition assay (CellTiter-Glo), MV-4-11; conditions: for GI50: Homo sapiens, MV4-11, read-out: MV-4-11 GI50; for MV-4-11 TGI: MV-4-11 cells, total growth inhibition, CellTiter-Glo;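 on all read-outs here: cellular ATP luminescence after 4 days, 3-fold dilution series from 10 µM top dose, vehicle (0.1% DMSO) set to 100%, cell-free medium set to −100%, day 0 corrected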
[1] = target: CREBBP bromodomain (His-CREBBP(1081-1197)) (Homo sapiens (Human), UniProt Q92793); experiment: AlphaScreen in-vitro binding assay for CREBBP; conditions: single determination or n ≧ 2 independent determinations, read-out: Biochemical IC50 CREBBP
Sequence of CREBBP bromodomain (His-CREBBP(1081-1197)) (Q92793 1081-1197): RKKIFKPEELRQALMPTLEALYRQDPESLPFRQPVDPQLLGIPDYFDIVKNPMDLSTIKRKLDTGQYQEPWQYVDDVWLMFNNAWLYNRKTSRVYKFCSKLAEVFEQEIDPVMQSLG
Outline: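 Detection used nickel-chelate acceptor plus streptavidin donor AlphaScreen beads, 1 h room temperature. Percent inhibition fitted by non-linear regression to IC50.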

K-562 cells = experiment: Cell growth inhibition assay (CellTiter-Glo), K-562; conditions: for GI50: Homo sapiens, K562, read-out: K-562 GI50; for K-562 TGI: K-562 cells, total growth inhibition, CellTiter-Glo;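 on all read-outs here: cellular ATP measured by luminescence after 4 days of exposure, 3-fold dilution series from 10 µM, DMSO vehicle-treated cells define 100%, cell-free medium wells −100%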
THP-1 cells = experiment: Cell growth inhibition assay (CellTiter-Glo), THP-1; conditions: for GI50: Homo sapiens, THP-1, read-out: THP-1 GI50; for THP-1 TGI: THP-1 cells, total growth inhibition, CellTiter-Glo;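 on all read-outs here: viability read as cellular ATP luminescence after 4 days, 3-fold dilution series from 10 µM, DMSO vehicle-treated cells taken as 100%, cell-free medium wells as −100%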
BRD4 (His-Brd4(44-477)) = BRD4 (His-Brd4(44-477)) (Homo sapiens (Human), UniProt O60885); experiment: TR-FRET in-vitro binding assay for BRD4; conditions: single determination or n ≧ 2 independent determinations, read-out: Biochemical IC50 BRD4
Outline: as §1

[2] = target: nuclear BRD4-NUT foci in HCC2494 NUT midline carcinoma cells (Homo sapiens, UniProt O60885); experiment: cell-based

Sequence of BRD2 (His-Brd2(60-472)) (P25440 60-472): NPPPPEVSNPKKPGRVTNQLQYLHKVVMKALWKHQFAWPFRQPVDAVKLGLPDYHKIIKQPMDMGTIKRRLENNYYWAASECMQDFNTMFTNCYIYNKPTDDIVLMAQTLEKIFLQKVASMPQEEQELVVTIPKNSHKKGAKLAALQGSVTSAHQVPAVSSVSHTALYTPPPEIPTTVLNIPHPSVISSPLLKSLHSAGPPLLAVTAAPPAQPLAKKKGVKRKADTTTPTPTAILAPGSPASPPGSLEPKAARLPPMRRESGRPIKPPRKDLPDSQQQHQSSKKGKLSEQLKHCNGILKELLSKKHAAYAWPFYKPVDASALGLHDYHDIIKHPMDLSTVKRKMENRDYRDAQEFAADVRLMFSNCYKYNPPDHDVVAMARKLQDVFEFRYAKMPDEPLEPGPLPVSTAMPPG

Compound	IC50 (BRD2 (His-Brd2(60-472)))	IC50 (BRD3 (His-Brd3(20-477)))	GI50 (MV-4-11 cells)	MV-4-11 TGI (MV-4-11 cells)	IC50 [1]	GI50 (K-562 cells)	K-562 TGI (K-562 cells)	GI50 (THP-1 cells)	THP-1 TGI (THP-1 cells)	IC50 (BRD4 (His-Brd4(44-477)))	IC50 [2]
Cc1cc(N2C(=O)c3nc(C4=CCOC4)n(C(C)C)c3C2c2ccc(Cl)cc2)cn2c(C)nnc12 (centres unmarked) [Example 11, 6-(4-chlorophenyl)-2-(2,5-dihydrofuran-3-yl)-5-(3,8-dimethyl-[1,2,4]triazolo[4,3-a]pyridin-6-yl)-1-isopropyl-5,6-dihydropyrrolo[3,4-d]imidazol-4(1H)-one]	41 nM	25 nM	48.5 nM	97.75 nM	5700 nM	330 nM	>10000 nM	90.9 nM	202.5 nM	18 nM	110 nM
Cc1cc(N2C(=O)c3nc(C)n(C(C)C)c3C2c2ccc(Cl)cc2)nn2c(C)nnc12 (racemic) [Example 18, 6-(4-chlorophenyl)-5-(3,8-dimethyl-[1,2,4]triazolo[4,3-b]pyridazin-6-yl)-1-isopropyl-2-methyl-5,6-dihydropyrrolo[3,4-d]imidazol-4(1H)-one]	19 nM	11 nM	11.2 nM	26.95 nM	27700 nM	91 nM	>10000 nM	15.9 nM	35.6 nM	13 nM	7.55 nM
COc1ccc(-c2nc3c(n2C(C)C)C(c2ccc(Cl)cc2)N(c2cc(OC)c4nnc(C)n4c2)C3=O)cn1 (centres unmarked) [Example 52, 6-(4-chlorophenyl)-1-isopropyl-5-(8-methoxy-3-methyl-[1,2,4]triazolo[4,3-a]pyridin-6-yl)-2-(6-methoxypyridin-3-yl)-5,6-dihydropyrrolo[3,4-d]imidazol-4(1H)-one]	80 nM	63 nM	271 nM	409 nM	> 37000 nM	2480 nM	>10000 nM	981 nM	1920 nM	35 nM	710 nM
COc1ncc(-c2nc3c([nH]2)C(c2ccc(Cl)cc2)N(c2cc(OC)c4nnc(C)n4c2)C3=O)c(OC)n1 (centres unmarked) [Example 127, 6-(4-chlorophenyl)-2-(2,4-dimethoxypyrimidin-5-yl)-5-(8-methoxy-3-methyl-[1,2,4]triazolo[4,3-a]pyridin-6-yl)-5,6-dihydropyrrolo[3,4-d]imidazol-4(1H)-one]	360 nM	480 nM	209 nM	317 nM	> 37000 nM	1720 nM	>10000 nM	377 nM	966 nM	120 nM	408 nM
COc1ccc(-c2nc3c([nH]2)[C@@H](c2ccc(Cl)cc2)N(c2cc(C)c(=O)n(C)c2)C3=O)cn1 [Example 5, (R)-6-(4-chlorophenyl)-5-(1,5-dimethyl-6-oxo-1,6-dihydropyridin-3-yl)-2-(6-methoxypyridin-3-yl)-5,6-dihydropyrrolo[3,4-d]imidazol-4(1H)-one]	32 nM	38 nM	37.1 nM	73.9 nM	560 nM	221 nM	>10000 nM	60 nM	106 nM	30 nM	67 nM
CCn1c(-c2cccnc2OC)nc2c1C(=O)N(c1cc(C)c(=O)n(C)c1)[C@@H]2c1ccc(Cl)cc1 [Example 41, (R)-6-(4-chlorophenyl)-5-(1,5-dimethyl-6-oxo-1,6-dihydropyridin-3-yl)-3-ethyl-2-(2-methoxypyridin-3-yl)-5,6-dihydropyrrolo[3,4-d]imidazol-4(3H)-one]	15.5 nM	17 nM	6.72 nM	11 nM	430 nM	45.2 nM	>10000 nM	13.8 nM	30.6 nM	16 nM	7 nM
COc1ncccc1-c1nc2c(n1C(C)C)C(=O)N(c1cc(C)c(=O)n(C)c1)[C@@H]2c1ccc(Cl)cc1 [Example 45, (R)-6-(4-chlorophenyl)-5-(1,5-dimethyl-6-oxo-1,6-dihydropyridin-3-yl)-3-isopropyl-2-(2-methoxypyridin-3-yl)-5,6-dihydropyrrolo[3,4-d]imidazol-4(3H)-one]	17 nM	17 nM	22.5 nM	43.9 nM	1000 nM	126 nM	>10000 nM	32.8 nM	60.5 nM	16 nM	49.7 nM
